Source: ChEMBL document CHEMBL1155747, “Cytotoxic diacetylenes from the stony coral Montipora species” (2001)
Values after ≈ are worked out from the molar mass of the structure shown.

How the values were obtained:
Type in all cases: functional
XF498 = experiment: Cytotoxicity against human XF498 cells; settings: read-out: ED50 (the source's name)
HCT-15 = experiment: Cytotoxicity against human HCT15 cells; settings: read-out: ED50 (the source's name)
A549 = experiment: Cytotoxicity against human A549 cells; settings: read-out: ED50 (the source's name)
SK-MEL-2 = experiment: Cytotoxicity against human SK-MEL-2 cells; settings: read-out: ED50 (the source's name)
SK-OV-3 = experiment: Cytotoxicity against human SKOV3 cells; settings: read-out: ED50 (the source's name)
HCT-116 = experiment: Inhibition of cell cycle in human HCT116 cells assessed as increase in apoptotic fraction at 100 ug/mL after 24 hrs by flow cytometry; parameters: scale not given: the % may be the effect or the level left

SMILES | EC50 (XF498) | EC50 (HCT-15) | EC50 (A549) | EC50 (SK-MEL-2) | EC50 (SK-OV-3) | Activity (HCT-116)
C=CCCCCCCCC#CC#CCOCC(=O)[O-].[Na+] | 4.96 µg/mL | 4.47 µg/mL | 6.26 µg/mL | 4.68 µg/mL | 4.88 µg/mL | –
CCCCCCCC#CC#CCO | 5.59 µg/mL (≈ 31.4 µM) | 5.9 µg/mL (≈ 33.1 µM) | 5.48 µg/mL (≈ 30.7 µM) | 4.45 µg/mL (≈ 25 µM) | 4.63 µg/mL (≈ 26 µM) | –
C=CCCCCCC#CC#C/C=C\C(C)=O | 29.2 µg/mL (≈ 136 µM) | 11.3 µg/mL (≈ 52.7 µM) | > 30 µg/mL | 4.61 µg/mL (≈ 21.5 µM) | 5.23 µg/mL (≈ 24.4 µM) | –
C=CCCCCCCCC#CC#CCO | 5.26 µg/mL (≈ 25.7 µM) | 3.32 µg/mL (≈ 16.2 µM) | 3.9 µg/mL (≈ 19.1 µM) | 3.94 µg/mL (≈ 19.3 µM) | 3.23 µg/mL (≈ 15.8 µM) | –
C=CCCCCCC#CC#C/C=C/C(C)=O | 5.5 µg/mL (≈ 25.7 µM) | 4.56 µg/mL (≈ 21.3 µM) | 6.39 µg/mL (≈ 29.8 µM) | 4.21 µg/mL (≈ 19.6 µM) | 3.52 µg/mL (≈ 16.4 µM) | –
C=CCCCCCC#CC#CC(O)CC(C)=O (racemic) | 3.87 µg/mL (≈ 16.7 µM) | 3.42 µg/mL (≈ 14.7 µM) | 4.97 µg/mL (≈ 21.4 µM) | 3.74 µg/mL (≈ 16.1 µM) | 3.85 µg/mL (≈ 16.6 µM) | –
CCCCCCCC#CC#CC(O)CC(C)=O (racemic) [MONTIPORYNE I] | 3.7 µg/mL (≈ 15.8 µM) | 3.73 µg/mL (≈ 15.9 µM) | 4.17 µg/mL (≈ 17.8 µM) | 1.4 µg/mL (≈ 5.97 µM) | 1.81 µg/mL (≈ 7.72 µM) | –
C=CCCCCCCCC#CC#CC(O)CC(C)=O (racemic) [MONTIPORYNE K] | 4.45 µg/mL (≈ 17.1 µM) | 4.18 µg/mL (≈ 16.1 µM) | 4.91 µg/mL (≈ 18.9 µM) | 3.52 µg/mL (≈ 13.5 µM) | 3.34 µg/mL (≈ 12.8 µM) | –
COc1cccc2c1C(=O)c1c(O)c3c(c(O)c1C2=O)C[C@@](O)(C(=O)CO)C[C@@H]3O[C@H]1C[C@H](N)[C@H](O)[C@H](C)O1 [DOXORUBICIN] | 0.08 µg/mL (≈ 0.147 µM) | 0.04 µg/mL (≈ 0.0736 µM) | 0.02 µg/mL (≈ 0.0368 µM) | 0.03 µg/mL (≈ 0.0552 µM) | 0.13 µg/mL (≈ 0.239 µM) | –
CCCCCCCC#CC#CCOCC(=O)OC [METHYLMONTIPORATE A] | > 30 µg/mL | 25.6 µg/mL (≈ 102 µM) | > 30 µg/mL | > 30 µg/mL | 20.5 µg/mL (≈ 82 µM) | –
C=CCCCCCCCC#CC#CCOCC(=O)OC [METHYLMONTIPORATE B] | > 30 µg/mL | > 30 µg/mL | > 30 µg/mL | > 30 µg/mL | > 30 µg/mL | –
CCCCCCCC#CC#CCOCC(=O)[O-].[Na+] [MONTIPORIC ACID A SODIUM SALT] | 7.72 µg/mL | 8.3 µg/mL | 6.31 µg/mL | 7.97 µg/mL | 7.5 µg/mL | –
C=CCCCCCC#CC#CCOCC(=O)[O-].[Na+] [MONTIPORIC AICD C] | > 30 µg/mL | > 30 µg/mL | > 30 µg/mL | > 30 µg/mL | > 30 µg/mL | –
CCCCCCCC#CC#C/C=C/C(C)=O [MONTIPORYNE A] | – | – | – | – | – | 19%
C=CCCCCCC#CC#CCO [MONTIPORYNE G] | 10.8 µg/mL (≈ 61.2 µM) | 12.9 µg/mL (≈ 73.4 µM) | 13.8 µg/mL (≈ 78.2 µM) | 9.56 µg/mL (≈ 54.2 µM) | 9.79 µg/mL (≈ 55.5 µM) | –
C=CCCCCCC#CC#CCOCCO [MONTIPORYNE H] | 16.9 µg/mL (≈ 76.6 µM) | 24.1 µg/mL (≈ 109 µM) | 22.7 µg/mL (≈ 103 µM) | 25.1 µg/mL (≈ 114 µM) | 17.9 µg/mL (≈ 81.4 µM) | –
